{"source": "patent US20040009904A1", "about": "“APL immunoreactive peptides, conjugates thereof and methods of treatment for aPL antibody-mediated pathologies” (priority 1995, published 2004)", "key": {"ACA-6501": {"target": "ACA-6501", "assay": "Competitive binding peptide ACA ELISA, cardiolipin/β2-GPI-coated plates", "set-up": "species or system human", "summary_of_the_method": "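Monomeric peptides at several amounts were preincubated ~1 h at RT with ACA-6501 serum (final 1:400), then added to cardiolipin-coated, fish-gelatin-blocked plates with β2-GPI for 1 h at RT. Bound IgG was detected with alkaline phosphatase anti-human IgG and phenolphthalein monophosphate, read at 550 nm. IC50 was the peptide amount at half-maximal absorbance.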"}, "ACA-6626": {"target": "ACA-6626", "assay": "Competitive binding peptide ACA ELISA, cardiolipin/β2-GPI-coated plates", "set-up": "species or system human", "method": "(§1) A variation of this assay uses microtitration plates coated with human β2-glycoprotein I/cardiolipin (β2-GPI/CL) instead of tetravalent peptide and tests the ability of monomeric peptides to block the binding of aPL antibody to the epitope(s) on β2-GPI/CL. In this assay, IgG-depleted human serum at an optimized concentration is used as a source of β2-GPI. The monomeric peptides at several concentrations are incubated with an optimized concentration of aPL antibody in a manner analogous to the assay which employs tetravalent peptide as a plate substrate. Following the incubation of aPL/peptide in (β2-GPI/CL) plates, antibody binding and the peptide concentration required for 50% inhibition is determined at half-maximal absorbance as in the tetravalent assay.\n(§2) Peptide sequences for all five peptides immediately follow the table. All were tested using the competitive binding peptide ACA ELISA using CL/β2-GPI plates as described herein.\n(§3) (B) Immulon I® 96-well, flat-bottom, polystyrene microtitration plates (Dynatech Laboratories, Inc., Chantilly, Va.) were coated with 30 μL/well of cardiolipin (CL, 50 μg; Sigma Chemical Co., St. Louis, Mo.) in ethanol. Two control wells received 30 μL ethanol only. After overnight evaporation at 4° C., each well was blocked with 200 μL of 5% (w/v) fish gelatin in PBS for 2 hours at RT.\n(§4) The CL/β2-GPI microtitration plate was washed 5 times with TBS and 100 μL aliquots in duplicate from Eppendorf tubes #1, 2, 3, and 4 containing the antibody-peptide (or no peptide mixtures) were added to the wells. A volume of 100 μL from tube #4 was added to the duplicate control wells containing no cardiolipin. The microtitration plate was incubated for 1 hour at RT with agitation at 40 rpm in an orbital shaker (American Scientific, Rotator V), washed 5 times with TBS and then 100 μL of 1:1000 goat anti-human IgG alkaline phosphatase conjugate (Zymed, Cat No. 62-8422) in 0.5% (w/v) BSA-TBS was added. Following incubation for 1 hour at RT, the microtitration plate was again washed 5 times with TBS and the colorimetric enzyme detection developed by adding 100 μL of PMPP solution (7.8 g phenolphthalein monophosphate plus 69.5 g of 2-amino-2-methyl-1-propanol in 100 mL water stock solution diluted 1:26 with water). After 21 minutes, the reaction was stopped by adding 50 μL of 0.2 M Na2HPO4 (Mallinckrodt) to each well. Absorbance at 550 nm was read in a microplate reader (Bio-Tek Instruments, Model EL 311). The amount of peptide that inhibited ACA-6501 binding by 50%, the IC50, was calculated from the graph at the intersection of half-maximal absorbance with amount of peptide added."}, "ACA-6638": {"target": "ACA-6638", "assay": "Competitive binding peptide ACA ELISA, cardiolipin/β2-GPI-coated plates", "set-up": "species or system human", "method": "as §1, §2, §3, §4"}, "ACA-6641 [1]": {"target": "ACA-6641", "assay": "Competitive binding peptide ACA ELISA, cardiolipin/β2-GPI-coated plates", "set-up": "species or system human", "method": "as §1, §2, §3, §4"}, "ACA-6644": {"target": "ACA-6644", "assay": "Competitive binding peptide ACA ELISA, cardiolipin/β2-GPI-coated plates", "set-up": "species or system human", "method": "as §1, §2, §3, §4"}, "ACA-7004": {"target": "ACA-7004", "assay": "Competitive binding peptide ACA ELISA, cardiolipin/β2-GPI-coated plates", "set-up": "species or system human", "method": "as §1, §2, §3, §4"}, "ACA-6903": {"target": "ACA-6903", "assay": "Competitive binding peptide ACA ELISA, cardiolipin/β2-GPI-coated plates", "set-up": "species or system human", "method": "as §1, §2, §3, §4"}, "ACA-6701": {"target": "ACA-6701", "assay": "Competitive binding peptide ACA ELISA, cardiolipin/β2-GPI-coated plates", "set-up": "species or system human", "method": "as §1, §2, §3, §4"}, "ACA-7005": {"target": "ACA-7005", "assay": "Competitive binding peptide ACA ELISA, cardiolipin/β2-GPI-coated plates", "set-up": "species or system human", "method": "as §1, §2, §3, §4"}, "ACA antibodies": {"system": "ACA antibodies", "assay": "Competitive binding peptide ACA ELISA, cardiolipin/β2-GPI-coated plates, panel of ACA antibodies (average)", "set-up": "species or system human", "method": "as §1, §2\nAs noted in Section I above, one synthetic peptide, 6641/3G3 was tested against several high titer ACA antisera. This peptide appeared to be crossreactive with the vast majority of ACA antisera tested as illustrated in FIG. 14.\nas §3, §4"}, "ACA-6641 [2]": {"system": "ACA-6641", "assay": "Phage-capture ELISA", "type": "binding, human", "conditions": "ACA-6641 screen", "method": "The phage-capture ELISA consists of the following steps. Microtitration wells are coated with aPL antibody and phage clones are added as in the micropanning assay. Unbound phage are washed away and the amount of bound phage is quantitated using an enzyme-conjugated goat antiserum which binds the major coat protein of the phage. Phage screened using phage-capture ELISA react with many aPL antibodies and provide a strong signal in subsequent ELISA assays. This intermediate level of sensitivity allows for greater efficiency in the peptide synthesis effort since few micropanning-positive phage are phage-capture ELISA positive. As a result, peptides synthesized from positive phage-capture ELISA phage are generally immunoreactive.\nAffACA-6641 was isolated from 4 mL of plasma taken from patient number 6641. AffACA-6641 (10 μg) was incubated with the pooled p-III phage libraries in a final volume of 100 μL as described previously. Following four rounds of biopanning, 45 clones from the 3rd and 4th rounds were tested by micropanning. Of the 45, 23 scored negative. The 3rd round phage yielded two clones that scored 4+, two that scored 3+ and two that scored 2+. From the 4th round, one clone scored 4+, one scored 3+ and three scored 2+. […] Four base DNA sequencing gave the following translated peptide sequence: […]"}, "ACA": {"system": "ACA", "assay": "Structure Activity Relationship of the Crossreactive ACA Epitope (relative activity)", "type": "binding, human", "conditions": "LJP 688 = 100", "source_text": "Peptide 6641/3G3 (LJP 688) was subjected to a number of analyses. The analyses included truncation at both the N-terminus and the C-terminus, disulfide substitution, substitution of alanine and glycine for amino acids in positions 2 through 8, substitution of branched aliphatic amino acids in positions 2, 4, 5 and 8, substitution of amino acids affecting conformation of the peptide, including substitution of α-methyl amino acids, substitution of basic amino acids in position 7, substitution of D-amino acids in positions 2 through 9, and the substitution of N-α-methyl amino acids in positions 1 through 9."}, "ACA-6635": {"target": "ACA-6635", "assay": "Competitive binding peptide ACA ELISA, cardiolipin/β2-GPI-coated plates", "set-up": "species or system human", "conditions": "ACA serum 6635 RS"}, "[3]": {"conditions": "peptide 1 mg/mL, affinity purified antibody"}}, "note": "Values joined by “and” are separate entries in the source; they are usually repeats but may differ in a detail not shown here. Equal entries are not always repeated. Bridge positions count the residues as written; N and C are the ends. Peptide text beside a SMILES is read from it."}
{"smiles": "CC(C)C[C@@H]1NC(=O)[C@@H](NC(=O)[C@@H]2CCCN2C(=O)CNC(=O)[C@H](C)N)CSSC[C@@H](C(=O)N2CCC[C@H]2C(=O)NCC(=O)O)NC(=O)[C@H](CC(C)C)NC(=O)[C@H](CCCCN)NC(=O)CNC(=O)[C@H](CC(C)C)NC(=O)[C@H](C(C)C)NC(=O)CNC1=O", "note": "[LJP 688, AGP-CLGVLGKLC-PG] (H-AGPCLGVLGKLCPG-OH; disulfide 4-12)", "values": [{"measurement": "IC50 for peptide LJP 688", "setting": "ACA-6501; ACA serum 6501 RS, RFL", "result": "890 µg/mL and 1100 µg/mL"}, {"measurement": "with ACA 6501 150 ug/mL", "setting": "ACA-6501; Optimization of Peptide 3G3, inf = no 50% inhibition", "result": 850, "unit": "µg/mL"}, {"measurement": "Percent Inhibition of AffACA by Peptide Monomers, 6501", "setting": "ACA-6501; [3]", "result": 86, "unit": "%"}, {"measurement": "IC50 for peptide LJP 688", "setting": "ACA-6626; ACA serum 6626 RS", "result": 1090, "unit": "µg/mL"}, {"measurement": "Percent Inhibition of AffACA by Peptide Monomers, 6626", "setting": "ACA-6626; [3]", "result": 100, "unit": "%"}, {"measurement": "IC50 for peptide LJP 688", "setting": "ACA-6638; ACA serum 6638 RS", "result": 810, "unit": "µg/mL"}, {"measurement": "Percent Inhibition of AffACA by Peptide Monomers, 6638", "setting": "ACA-6638; [3]", "result": 100, "unit": "%"}, {"measurement": "IC50 for peptide LJP 688", "setting": "ACA-6641 [1]; ACA serum 6641 RS", "result": "890 µg/mL and 510 µg/mL"}, {"measurement": "Percent Inhibition of AffACA by Peptide Monomers, 6641", "setting": "ACA-6641 [1]; [3]", "result": 93, "unit": "%"}, {"measurement": "IC50 for peptide LJP 688", "setting": "ACA-6644; ACA serum 6644 RS", "result": 760, "unit": "µg/mL"}, {"measurement": "Percent Inhibition of AffACA by Peptide Monomers, 6644", "setting": "ACA-6644; [3]", "result": 100, "unit": "%"}, {"measurement": "IC50 for peptide LJP 688", "setting": "ACA-7004; ACA serum 7004 RFL", "result": 670, "unit": "µg/mL"}, {"measurement": "Percent Inhibition of AffACA by Peptide Monomers, 7004", "setting": "ACA-7004; [3]", "result": 100, "unit": "%"}, {"measurement": "IC50 for peptide LJP 688", "setting": "ACA-6903; ACA serum 6903 RS", "result": 800, "unit": "µg/mL"}, {"measurement": "Percent Inhibition of AffACA by Peptide Monomers, 6903", "setting": "ACA-6903; [3]", "result": 100, "unit": "%"}, {"measurement": "IC50 for peptide LJP 688", "setting": "ACA-6701; ACA serum 6701 RS", "result": 1070, "unit": "µg/mL"}, {"measurement": "Percent Inhibition of AffACA by Peptide Monomers, 6701", "setting": "ACA-6701; [3]", "result": 100, "unit": "%"}, {"measurement": "IC50 for peptide LJP 688", "setting": "ACA-7005; ACA serum 7005 RFL", "result": 750, "unit": "µg/mL"}, {"measurement": "Percent Inhibition of AffACA by Peptide Monomers, 7005", "setting": "ACA-7005; [3]", "result": 95, "unit": "%"}, {"measurement": "complete inhibition, cross-reactivity with 10 of 10 ACA antibodies", "setting": "ACA antibodies; at 1.8 mg/mL", "result": "> 80", "unit": "%"}, {"measurement": "IC50 for peptide LJP 688, mean ± sd", "setting": "ACA antibodies; mean over ten ACA sera", "result": "860 ± 160", "unit": "µg/mL"}, {"measurement": "Percent Inhibition of AffACA by Peptide Monomers, Ave.", "setting": "ACA antibodies; peptide 1 mg/mL, average over nine antibodies", "result": 97, "unit": "%"}, {"measurement": "result in the phage-capture ELISA", "setting": "ACA-6641 [2]", "result": "strongly positive"}, {"measurement": "Relative Activity", "setting": "ACA", "result": 100}, {"measurement": "IC50 for peptide LJP 688", "setting": "ACA-6635", "result": 1000, "unit": "µg/mL"}]}
